According to US20250282820A1, “PEPTIDE COMPLEX HAVING TRKB BINDING ACTIVITY” (PEPTIDREAM INC, priority 2022, published 2025):
*1 amine or outer side, *2 acyl side, *3 side chain or, on linkers, in order; H or OH if unused. Where a SMILES comes first, the peptide text is derived from it. Bridges are numbered along the chain shown (N, C = ends). Roman numbers before positions name the chains, in order. Where no end group is shown, it is not given here. [ ]: non-standard residue; d: D form. ξ: configuration not given here. X1 = O=C(OCCOCCOCCOCCOCCOCCOCCOCCOCCOCCOCCOCCOC(=O)[*:2])[*:1]; 3Pal = N[C@@H](Cc1cccnc1)C(=O)O; ξK = NCCCCC(N)C(=O)O; ξP = O=C(O)C1CCCN1; ξC = NC(CS)C(=O)O

Key:
[1] = target: T1, TrkB (CellSensor TrkB-NFAT-bla CHO-K1 Cell) (Homo sapiens, UniProt Q16620); assay: NFAT transcriptional reporter assay for TrkB agonist activity; format: cell-based; details: class = peptide concentration giving 50% or more activity; BDNF maximum signal = 100%, no stimulation = 0%; 5 hours culture
T1 construct: host or cells: CHO-K1 (CellSensor TrkB-NFAT-bla CHO-K1)
How it was run: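 CHO-K1 TrkB-NFAT-bla cells, 12,500 per well, treated overnight-seeded with peptide or BDNF for 5 h, then CCF4-AM substrate 2 h in the dark; 460/535 nm emission ratio. Activity scaled to maximal BDNF signal (100%) and unstimulated (0%); grades A/B/C mean ≥50% activity at 1, 10 or 100 nM.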

[2] = target: T1, TrkB (CellSensor TrkB-NFAT-bla CHO-K1 Cell); assay: pERK1/2 AlphaLISA assay (phosphorylation of ERK) for TrkB agonist activity; format: cell-based; details: class = peptide concentration giving 50% or more activity; BDNF maximum signal = 100%, no stimulation = 0%; 15 minutes of stimulation
How it was run: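 TrkB-NFAT-bla CHO-K1 cells were starved 4 h in 0.1% BSA medium and then stimulated 15 min with peptide or BDNF; p-ERK1/2 (Thr202/Tyr204) in the lysate was read by AlphaLISA SureFire. Activity % was scaled to the BDNF maximum (100%) and no stimulation (0%); A = ≥50% at 1 nM, B = ≥50% at 10 nM; curves were 8 points, 4-fold dilutions from 100 nM.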

TrkB = TrkB (Homo sapiens, UniProt Q16620); assay: PathHunter eXpress TrkB Functional Assay (phosphorylation of TrkB); format: cell-based; details: stimulation for 3 hours; for Emax: maximum signal induced by BDNF = 100%
How it was run: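 PathHunter TrkB cells, cultured 48 h, were stimulated 3 h with peptide or BDNF, then detection reagent added for 60 min at room temperature; luminescence read. Activity (%) scaled from unstimulated (0%) to maximal BDNF signal (100%); peptides tested over 0.006104-100 nM, 0.032-100 nM or 0.01-10 nM ranges.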

[3] = target: TrkB of the cells of the PathHunter eXpress TrkB Functional Assay kit (DiscoverX) (UniProt Q16620 32-822, limits assumed); assay: cell-based or functional assay
[4] = target: Recombinant Human TrkB Fc Chimera Protein (R&D Systems) (human) (UniProt Q16620); assay: SPR (Biacore T200), TrkB-Fc captured on anti-human IgG (Fc) antibody, peptide complex as analyte, single cycle kinetics
Sequence of Recombinant Human TrkB Fc Chimera Protein (R&D Systems) (human) (Q16620 32-430, change not shown): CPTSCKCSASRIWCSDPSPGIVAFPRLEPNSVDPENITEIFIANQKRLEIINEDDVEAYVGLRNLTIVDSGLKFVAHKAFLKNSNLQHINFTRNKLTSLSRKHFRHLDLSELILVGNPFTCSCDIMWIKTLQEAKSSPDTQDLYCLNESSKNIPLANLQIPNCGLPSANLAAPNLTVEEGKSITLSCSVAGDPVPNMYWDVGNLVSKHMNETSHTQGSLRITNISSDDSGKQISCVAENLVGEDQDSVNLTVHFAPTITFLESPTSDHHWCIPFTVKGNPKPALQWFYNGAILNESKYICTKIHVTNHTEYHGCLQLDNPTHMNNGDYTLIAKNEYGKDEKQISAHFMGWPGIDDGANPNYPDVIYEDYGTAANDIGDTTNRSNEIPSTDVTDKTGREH

Sequence of TrkB of the cells of the PathHunter eXpress TrkB Functional Assay kit (DiscoverX) (Q16620 32-822 limits assumed): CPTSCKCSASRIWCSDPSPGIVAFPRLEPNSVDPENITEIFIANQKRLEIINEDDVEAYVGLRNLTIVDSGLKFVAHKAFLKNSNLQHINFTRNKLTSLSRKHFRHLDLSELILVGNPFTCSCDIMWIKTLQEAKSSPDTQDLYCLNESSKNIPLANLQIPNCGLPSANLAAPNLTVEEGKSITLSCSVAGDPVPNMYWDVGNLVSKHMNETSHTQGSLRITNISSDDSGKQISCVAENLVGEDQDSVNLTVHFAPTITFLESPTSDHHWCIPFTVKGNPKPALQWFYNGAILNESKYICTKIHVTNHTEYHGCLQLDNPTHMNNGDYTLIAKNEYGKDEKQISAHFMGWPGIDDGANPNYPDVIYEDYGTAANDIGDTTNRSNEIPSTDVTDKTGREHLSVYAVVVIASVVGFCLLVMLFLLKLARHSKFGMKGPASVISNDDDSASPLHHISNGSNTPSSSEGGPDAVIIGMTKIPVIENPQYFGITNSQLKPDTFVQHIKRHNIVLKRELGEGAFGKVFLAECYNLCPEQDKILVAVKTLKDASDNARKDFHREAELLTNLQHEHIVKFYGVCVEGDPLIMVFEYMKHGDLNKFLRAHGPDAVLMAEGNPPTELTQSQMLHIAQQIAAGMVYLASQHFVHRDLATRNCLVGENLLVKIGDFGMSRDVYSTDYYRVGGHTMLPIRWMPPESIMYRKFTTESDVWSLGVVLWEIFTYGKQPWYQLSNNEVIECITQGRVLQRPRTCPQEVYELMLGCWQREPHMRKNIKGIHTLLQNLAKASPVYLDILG
Sequence of TrkB (Q16620 32-822): as the sequence (Q16620 32-822 limits assumed) above
T1 sequence (Q16620 32-822): as the sequence (Q16620 32-822 limits assumed) above

Row | PathHunter EC50 [3] [nM] | PathHunter Emax (BDNF maximum = 100%) [3] [%] | koff [4] [s⁻¹] | Molecule | NFAT Assay Results [1] | pERK (aLISA) Assay Results [2] | Emax (TrkB) [%] | EC50 (TrkB) [nM]
1 | 0.421 | 102 | < 1e-05 | {CH2CO}-FSPY[3Pal]WPTYSE[3Pal]VECG (thioether N-15; also: homodimer via linker No. 7 (K-cPEG13c-K) at Gly16) [peptide complex, dimer structure No. 48 (peptide sequence No. 15 + linker structure No. 7)] |  |  |  | 
2 | 0.358 | 93 | < 1e-05 | {CH2CO}-FEPY[3Pal]WPTYSE[3Pal]VECG (thioether N-15; also: homodimer via linker No. 7 (K-cPEG13c-K) at Gly16) [peptide complex, dimer structure No. 56 (peptide sequence No. 17 + linker structure No. 7)] |  |  |  | 

Further lines, the molecule ahead of its results:

Row | Molecule | PathHunter EC50 [3] [nM] | PathHunter Emax (BDNF maximum = 100%) [3] [%] | koff [4] [s⁻¹] | NFAT Assay Results [1] | pERK (aLISA) Assay Results [2] | Emax (TrkB) [%] | EC50 (TrkB) [nM]
3 | CC(C)[C@@H]1NC(=O)[C@H](Cc2cccnc2)NC(=O)[C@H](CCC(=O)O)NC(=O)[C@H](CO)NC(=O)[C@H](Cc2ccc(O)cc2)NC(=O)[C@H]([C@@H](C)O)NC(=O)[C@@H]2CCCN2C(=O)[C@H](Cc2c[nH]c3ccccc23)NC(=O)[C@H](Cc2cccnc2)NC(=O)[C@H](Cc2ccc(O)cc2)NC(=O)[C@@H]2CCCN2C(=O)[C@H](CCC(=O)O)NC(=O)[C@H](Cc2ccccc2)NC(=O)CSC[C@@H](C(=O)NCC(=O)N[C@@H](CCCCNC(=O)OCCOCCOCCOCCOCCOCCOCCOCCOCCOCCOCCOCCOC(=O)NCCCC[C@H](NC(=O)CNC(=O)[C@@H]2CSCC(=O)N[C@@H](Cc3ccccc3)C(=O)N[C@@H](CCC(=O)O)C(=O)N3CCC[C@H]3C(=O)N[C@@H](Cc3ccc(O)cc3)C(=O)N[C@@H](Cc3cccnc3)C(=O)N[C@@H](Cc3c[nH]c4ccccc34)C(=O)N3CCC[C@H]3C(=O)N[C@@H]([C@@H](C)O)C(=O)N[C@@H](Cc3ccc(O)cc3)C(=O)N[C@@H](CO)C(=O)N[C@@H](CCC(=O)O)C(=O)N[C@@H](Cc3cccnc3)C(=O)N[C@@H](C(C)C)C(=O)N[C@@H](CCC(=O)O)C(=O)N2)C(N)=O)C(N)=O)NC(=O)[C@H](CCC(=O)O)NC1=O [compound 57] (I: {CH2CO}-FEPY[3Pal]WPTYSE[3Pal]VECGK-NH2 / II: {CH2CO}-FEPY[3Pal]WPTYSE[3Pal]VECGK-NH2; linker I:17-II:17 via X1; thioether I:N-I:15, II:N-II:15) |  |  |  | A (The peptide with 50% or more activity when 1 nM of the peptide was added was evaluated as A) | A (The peptide with 50% or more activity when 1 nM of the peptide was added was evaluated as A) | 99 | 
4 | CC(C)[C@@H]1NC(=O)[C@H](Cc2cccnc2)NC(=O)[C@H](CCC(=O)O)NC(=O)[C@H](CO)NC(=O)[C@H](Cc2ccc(O)cc2)NC(=O)[C@H]([C@@H](C)O)NC(=O)[C@@H]2CCCN2C(=O)[C@H](Cc2c[nH]c3ccccc23)NC(=O)[C@H](Cc2cccnc2)NC(=O)[C@H](Cc2ccc(O)cc2)NC(=O)[C@@H]2CCCN2C(=O)[C@H](CCC(=O)O)NC(=O)[C@H](Cc2ccccc2)NC(=O)CSCC(C(=O)NCC(=O)N[C@@H](CCCCNC(=O)OCCOCCOCCOCCOCCOCCOCCOCCOCCOCCOCCOCCOC(=O)NCCCCC(NC(=O)CNC(=O)[C@@H]2CSCC(=O)N[C@@H](Cc3ccccc3)C(=O)N[C@@H](CCC(=O)O)C(=O)N3CCCC3C(=O)N[C@@H](Cc3ccc(O)cc3)C(=O)N[C@@H](Cc3cccnc3)C(=O)N[C@@H](Cc3c[nH]c4ccccc34)C(=O)N3CCCC3C(=O)N[C@@H]([C@@H](C)O)C(=O)N[C@@H](Cc3ccc(O)cc3)C(=O)N[C@@H](CO)C(=O)N[C@@H](CCC(=O)O)C(=O)N[C@@H](Cc3cccnc3)C(=O)N[C@@H](C(C)C)C(=O)N[C@@H](CCC(=O)O)C(=O)N2)C(N)=O)C(N)=O)NC(=O)[C@H](CCC(=O)O)NC1=O (stereo partly shown) [Dimer Structure No. 57] (I: {CH2CO}-FEPY[3Pal]WPTYSE[3Pal]VE[ξC]GK-NH2 / II: {CH2CO}-FE[ξP]Y[3Pal]W[ξP]TYSE[3Pal]VECG[ξK]-NH2; linker I:17-II:17 via X1; thioether I:N-I:15, II:N-II:15) |  |  |  | B (the peptide with 50% or more activity when 10 nM of the peptide was added was evaluated as B) | B (the peptide with 50% or more activity when 10 nM of the peptide was added was evaluated as B) | 89 | 0.8 to 4
